smiles,measurement,value
CCOC(=O)OC1=C(c2cc(C)ccc2C)C(=O)NC12CCN(OC)CC2 [Compound P1],melting point,170 to 173 °C
CCCOC(=O)OC1=C(c2cc(C)ccc2C)C(=O)NC12CCN(OC)CC2 [Compound P2],melting point,133 to 136 °C
CON1CCC2(CC1)NC(=O)C(c1cc(C)ccc1C)=C2OC(=O)OC(C)C [Compound P3],melting point,207 to 209 °C
C=CCOC(=O)OC1=C(c2cc(C)ccc2C)C(=O)NC12CCN(OC)CC2 [Compound P4],melting point,140 to 142 °C
C=COC(=O)OC1=C(c2cc(C)ccc2C)C(=O)NC12CCN(OC)CC2 [Compound P6],melting point,162 to 164 °C
CON1CCC2(CC1)NC(=O)C(c1cc(C)ccc1C)=C2OC(=O)OCC(C)(C)C [Compound P7],melting point,196 to 197 °C
C#CCOC(=O)OC1=C(c2cc(C)ccc2C)C(=O)NC12CCN(OC)CC2 [Compound P8],melting point,151 to 153 °C
CON1CCC2(CC1)NC(=O)C(c1cc(C)ccc1C)=C2OC(=O)C(C)(C)C [Compound P9],melting point,158 to 159 °C
CCN(CC)C(=O)OC1=C(c2cc(C)ccc2C)C(=O)NC12CCN(OC)CC2 [Compound P10],melting point,129 to 131 °C
COC1=C(c2cc(C)ccc2C)C(=O)NC12CCN(OC)CC2 [Compound P11],melting point,203 to 205 °C
COCOC1=C(c2cc(C)ccc2C)C(=O)NC12CCN(OC)CC2 [Compound P12],melting point,183 to 185 °C
CON1CCC2(CC1)NC(=O)C(c1cc(C)ccc1C)=C2OS(=O)(=O)C(C)C [Compound P13],melting point,168 to 170 °C
CCOC(=O)OC1=C(c2c(Cl)cccc2Cl)C(=O)NC12CCN(OC)CC2 [Compound P17],melting point,229 to 232 °C
CON1CCC2(CC1)NC(=O)C(c1cc(C)ccc1C)=C2OC(C)=O [Compound P19],melting point,233 to 236 °C
CCC(=O)OC1=C(c2cc(C)ccc2C)C(=O)NC12CCN(OC)CC2 [Compound P20],melting point,202 to 204 °C
CCOC(=O)OC1=C(c2cc(C)ccc2C)C(=O)NC12CCN(OCC)CC2 [Compound P21],melting point,167 to 168 °C
CCOC(=O)OC1=C(c2ccc(Cl)cc2Cl)C(=O)NC12CCN(OCC)CC2 [Compound P23],melting point,183 to 184 °C
CCON1CCC2(CC1)NC(=O)C(c1cc(C)ccc1C)=C2OC(=O)C(C)(C)C [Compound P24],melting point,169 to 170 °C
CCON1CCC2(CC1)NC(=O)C(c1ccc(Cl)cc1Cl)=C2OC(=O)C(C)(C)C [Compound P26],melting point,165 to 166 °C
CCOC(=O)OC1=C(c2cc(Br)ccc2C)C(=O)NC12CCN(OC)CC2 [Compound P27],melting point,205 to 209 °C
CON1CCC2(CC1)NC(=O)C(c1cc(Br)ccc1C)=C2OC(=O)N(C)CCC#N [Compound P28],melting point,197 to 200 °C
CCOC(=O)OC1=C(c2ccc(Cl)c(Cl)c2)C(=O)NC12CCN(OC)CC2 [Compound P30],melting point,222 to 224 °C
CCOC(=O)OC1=C(c2cc(OC)ccc2OC)C(=O)NC12CCN(OC)CC2 [Compound P31],melting point,192 to 193 °C
CON1CCC2(CC1)NC(=O)C(c1c(Cl)cccc1Cl)=C2OC(=O)N(C)CCC#N [Compound P33],melting point,239 to 242 °C
CON1CCC2(CC1)NC(=O)C(c1cc(C)ccc1C)=C2OCC#N [Compound P35],melting point,104 to 106 °C
C=CCOC1=C(c2cc(C)ccc2C)C(=O)NC12CCN(OC)CC2 [Compound P37],melting point,173 to 174 °C
C#CCOC1=C(c2cc(C)ccc2C)C(=O)NC12CCN(OC)CC2 [Compound P38],melting point,184 to 185 °C
CON1CCC2(CC1)NC(=O)C(c1c(C)cc(C)cc1C)=C2OC(=O)N(C)CCC#N [Compound P40],melting point,220 to 224 °C
CON1CCC2(CC1)NC(=O)C(c1ccc(Cl)c(Cl)c1)=C2OC(=O)N(C)CCC#N [Compound P41],melting point,56 to 59 °C
COc1ccc(OC)c(C2=C(OC(=O)N(C)CCC#N)C3(CCN(OC)CC3)NC2=O)c1 [Compound P42],melting point,187 to 189 °C

# Source: patent US8722578B2, “Spiroheterocyclic pyrrolidinedione herbicidal compositions” (Syngenta Participations AG, priority 2008, dated 2014)
